From ChEMBL document CHEMBL2417394, “Exquisite selectivity for human toll-like receptor 8 in substituted furo[2,3-c]quinolines” (J Med Chem, 2013)
Activity calls are given as the source filed them.

Experiments:
[1] = target: T1, Nucleotide-binding oligomerization domain-containing protein 1 (Homo sapiens) (UniProt Q9Y239); assay: Antagonist activity at NOD1 (unknown origin)
T1 sequence (whole entry): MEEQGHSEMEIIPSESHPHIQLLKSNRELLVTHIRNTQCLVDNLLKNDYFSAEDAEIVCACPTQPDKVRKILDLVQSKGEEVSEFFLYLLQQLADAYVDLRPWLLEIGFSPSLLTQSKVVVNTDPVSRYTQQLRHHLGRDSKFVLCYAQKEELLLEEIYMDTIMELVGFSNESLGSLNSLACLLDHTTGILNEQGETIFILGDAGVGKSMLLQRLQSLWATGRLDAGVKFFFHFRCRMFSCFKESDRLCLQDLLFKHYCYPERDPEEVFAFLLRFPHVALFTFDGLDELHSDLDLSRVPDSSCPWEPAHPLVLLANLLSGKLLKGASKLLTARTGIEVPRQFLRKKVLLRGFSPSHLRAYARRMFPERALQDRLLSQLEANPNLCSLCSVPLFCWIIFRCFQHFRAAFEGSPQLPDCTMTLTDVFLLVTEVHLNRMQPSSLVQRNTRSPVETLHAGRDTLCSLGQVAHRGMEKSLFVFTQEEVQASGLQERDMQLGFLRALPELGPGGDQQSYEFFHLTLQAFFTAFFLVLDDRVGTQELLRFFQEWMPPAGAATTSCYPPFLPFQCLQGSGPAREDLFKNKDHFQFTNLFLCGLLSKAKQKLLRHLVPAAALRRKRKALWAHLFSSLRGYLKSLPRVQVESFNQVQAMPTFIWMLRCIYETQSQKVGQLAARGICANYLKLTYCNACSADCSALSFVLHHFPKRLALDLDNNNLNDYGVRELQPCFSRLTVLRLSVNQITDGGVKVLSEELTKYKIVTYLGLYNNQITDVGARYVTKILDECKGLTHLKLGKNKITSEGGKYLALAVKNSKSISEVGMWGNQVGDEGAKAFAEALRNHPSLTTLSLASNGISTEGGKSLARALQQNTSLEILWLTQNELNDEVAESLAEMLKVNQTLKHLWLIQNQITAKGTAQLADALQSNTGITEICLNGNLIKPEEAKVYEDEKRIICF

[2] = target: Nucleotide-binding oligomerization domain-containing protein 2 (Homo sapiens) (UniProt Q9HC29); assay: Antagonist activity at NOD2 (unknown origin)
Sequence of Nucleotide-binding oligomerization domain-containing protein 2 (Homo sapiens) (Q9HC29 whole entry, the tested form may be a part): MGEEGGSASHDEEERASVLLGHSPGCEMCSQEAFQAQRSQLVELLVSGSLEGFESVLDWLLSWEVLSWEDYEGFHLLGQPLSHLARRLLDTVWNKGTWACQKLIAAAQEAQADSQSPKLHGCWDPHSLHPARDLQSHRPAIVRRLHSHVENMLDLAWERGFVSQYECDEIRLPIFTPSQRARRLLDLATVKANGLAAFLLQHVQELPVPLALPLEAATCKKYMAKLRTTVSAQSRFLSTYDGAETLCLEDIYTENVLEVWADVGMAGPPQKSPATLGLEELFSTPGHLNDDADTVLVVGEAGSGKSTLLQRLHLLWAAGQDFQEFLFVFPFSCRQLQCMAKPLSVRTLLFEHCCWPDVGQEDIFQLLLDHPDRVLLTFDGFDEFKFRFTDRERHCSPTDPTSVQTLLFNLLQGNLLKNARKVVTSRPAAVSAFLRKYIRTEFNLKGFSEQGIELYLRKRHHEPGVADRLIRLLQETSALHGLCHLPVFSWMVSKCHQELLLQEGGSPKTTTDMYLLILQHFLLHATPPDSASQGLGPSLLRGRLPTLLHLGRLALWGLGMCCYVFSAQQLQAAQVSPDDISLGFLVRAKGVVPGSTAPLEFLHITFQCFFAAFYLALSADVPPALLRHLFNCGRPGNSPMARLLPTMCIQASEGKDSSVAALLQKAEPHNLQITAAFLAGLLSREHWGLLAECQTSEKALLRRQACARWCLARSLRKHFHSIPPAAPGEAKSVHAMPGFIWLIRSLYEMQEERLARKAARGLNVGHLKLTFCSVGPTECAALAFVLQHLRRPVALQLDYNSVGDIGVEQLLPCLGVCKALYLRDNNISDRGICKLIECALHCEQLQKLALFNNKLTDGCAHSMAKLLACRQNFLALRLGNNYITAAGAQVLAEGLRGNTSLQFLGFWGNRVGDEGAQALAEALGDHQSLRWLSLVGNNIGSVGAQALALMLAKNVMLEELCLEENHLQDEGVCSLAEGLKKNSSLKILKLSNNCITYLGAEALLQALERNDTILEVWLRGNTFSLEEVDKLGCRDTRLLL

[3] = target: T2, Toll-like receptor 9 (Homo sapiens) (UniProt Q9NR96); assay: Antagonist activity at human TLR9 expressed in HEK293 cells co-transfected with MD2 and sAP assessed as inhibition of NF-kappaB activity by reporter gene assay; type: cell-based
T2 sequence (whole entry): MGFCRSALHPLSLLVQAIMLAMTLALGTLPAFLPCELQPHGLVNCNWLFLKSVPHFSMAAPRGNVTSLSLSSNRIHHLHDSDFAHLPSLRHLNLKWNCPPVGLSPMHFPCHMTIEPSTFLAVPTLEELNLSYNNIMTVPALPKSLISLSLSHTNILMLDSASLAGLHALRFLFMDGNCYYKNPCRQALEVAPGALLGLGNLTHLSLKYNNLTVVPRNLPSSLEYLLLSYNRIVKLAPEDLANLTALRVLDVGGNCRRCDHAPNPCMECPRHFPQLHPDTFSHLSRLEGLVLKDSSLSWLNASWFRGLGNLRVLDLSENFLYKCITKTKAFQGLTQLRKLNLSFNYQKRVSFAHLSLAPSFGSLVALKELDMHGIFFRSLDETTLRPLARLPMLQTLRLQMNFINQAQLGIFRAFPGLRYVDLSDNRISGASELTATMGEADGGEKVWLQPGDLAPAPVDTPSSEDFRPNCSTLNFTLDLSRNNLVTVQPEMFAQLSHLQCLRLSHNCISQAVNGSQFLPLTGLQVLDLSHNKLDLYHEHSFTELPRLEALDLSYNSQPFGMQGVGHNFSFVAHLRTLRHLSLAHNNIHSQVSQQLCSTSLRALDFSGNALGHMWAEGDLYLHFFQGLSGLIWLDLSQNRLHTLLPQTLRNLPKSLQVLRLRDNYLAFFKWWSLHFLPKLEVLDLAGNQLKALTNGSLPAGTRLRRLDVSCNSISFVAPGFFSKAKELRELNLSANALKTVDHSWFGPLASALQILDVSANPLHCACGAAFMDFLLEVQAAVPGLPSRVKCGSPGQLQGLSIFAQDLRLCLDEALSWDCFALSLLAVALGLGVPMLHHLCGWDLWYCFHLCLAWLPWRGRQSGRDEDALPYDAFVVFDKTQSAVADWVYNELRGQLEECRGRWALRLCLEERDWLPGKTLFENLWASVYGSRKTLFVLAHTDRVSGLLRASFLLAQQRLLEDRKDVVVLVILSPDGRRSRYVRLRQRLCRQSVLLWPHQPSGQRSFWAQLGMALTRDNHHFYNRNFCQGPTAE

[4] = target: Toll-like receptor 5 (Homo sapiens) (UniProt O60602); assay: Antagonist activity at human TLR5 expressed in HEK293 cells co-transfected with MD2 and sAP assessed as inhibition of NF-kappaB activity by reporter gene assay; type: cell-based
Sequence of Toll-like receptor 5 (Homo sapiens) (O60602 whole entry): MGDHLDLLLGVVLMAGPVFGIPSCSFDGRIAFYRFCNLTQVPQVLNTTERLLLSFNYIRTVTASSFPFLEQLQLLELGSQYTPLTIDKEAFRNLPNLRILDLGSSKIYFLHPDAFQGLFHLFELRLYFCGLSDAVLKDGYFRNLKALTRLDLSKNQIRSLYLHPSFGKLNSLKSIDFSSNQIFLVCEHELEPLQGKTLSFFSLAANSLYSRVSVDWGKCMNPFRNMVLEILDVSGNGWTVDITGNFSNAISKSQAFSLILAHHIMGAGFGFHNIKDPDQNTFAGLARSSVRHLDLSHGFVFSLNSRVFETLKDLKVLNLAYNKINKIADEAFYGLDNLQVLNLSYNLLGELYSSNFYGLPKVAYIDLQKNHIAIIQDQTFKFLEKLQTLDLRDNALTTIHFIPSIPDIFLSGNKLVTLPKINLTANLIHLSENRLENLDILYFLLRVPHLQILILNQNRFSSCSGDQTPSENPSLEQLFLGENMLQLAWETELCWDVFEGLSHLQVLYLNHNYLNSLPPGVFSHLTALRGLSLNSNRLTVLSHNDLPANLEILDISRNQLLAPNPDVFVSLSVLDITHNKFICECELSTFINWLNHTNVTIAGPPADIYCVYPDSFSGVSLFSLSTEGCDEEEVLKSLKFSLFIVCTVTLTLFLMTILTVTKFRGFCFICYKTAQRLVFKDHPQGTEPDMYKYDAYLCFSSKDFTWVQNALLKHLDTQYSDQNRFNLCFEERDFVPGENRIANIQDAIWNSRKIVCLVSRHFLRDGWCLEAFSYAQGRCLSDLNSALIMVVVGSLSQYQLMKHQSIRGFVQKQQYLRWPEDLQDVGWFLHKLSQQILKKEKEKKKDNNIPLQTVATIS

[5] = target: Toll-like receptor 4 (Homo sapiens) (UniProt O00206); assay: Antagonist activity at human TLR4 expressed in HEK293 cells co-transfected with MD2 and sAP assessed as inhibition of NF-kappaB activity by reporter gene assay; type: cell-based
Sequence of Toll-like receptor 4 (Homo sapiens) (O00206 whole entry): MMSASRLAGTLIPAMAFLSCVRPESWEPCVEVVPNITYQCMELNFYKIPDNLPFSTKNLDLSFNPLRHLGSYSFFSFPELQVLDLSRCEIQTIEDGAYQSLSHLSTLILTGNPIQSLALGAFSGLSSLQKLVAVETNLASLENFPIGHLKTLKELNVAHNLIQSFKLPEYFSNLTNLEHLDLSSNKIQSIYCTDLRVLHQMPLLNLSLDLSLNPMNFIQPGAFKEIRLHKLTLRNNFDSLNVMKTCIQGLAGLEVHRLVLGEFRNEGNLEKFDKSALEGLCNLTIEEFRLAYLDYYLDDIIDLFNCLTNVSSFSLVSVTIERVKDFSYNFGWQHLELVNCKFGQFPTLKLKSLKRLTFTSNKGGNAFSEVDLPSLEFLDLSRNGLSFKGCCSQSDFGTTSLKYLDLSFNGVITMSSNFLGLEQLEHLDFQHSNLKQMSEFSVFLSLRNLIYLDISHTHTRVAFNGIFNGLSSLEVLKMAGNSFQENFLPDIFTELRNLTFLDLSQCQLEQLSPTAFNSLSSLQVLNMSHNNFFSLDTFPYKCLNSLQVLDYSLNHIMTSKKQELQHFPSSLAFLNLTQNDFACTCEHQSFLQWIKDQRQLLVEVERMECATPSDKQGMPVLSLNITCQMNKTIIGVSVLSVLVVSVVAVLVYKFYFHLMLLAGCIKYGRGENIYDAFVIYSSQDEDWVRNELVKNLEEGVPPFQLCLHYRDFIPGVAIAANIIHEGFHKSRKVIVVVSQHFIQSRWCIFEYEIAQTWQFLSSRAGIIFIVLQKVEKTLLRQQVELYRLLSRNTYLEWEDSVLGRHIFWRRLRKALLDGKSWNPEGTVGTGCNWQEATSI

[6] = target: Toll-like receptor 3 (Homo sapiens) (UniProt O15455); assay: Antagonist activity at human TLR3 expressed in HEK293 cells co-transfected with MD2 and sAP assessed as inhibition of NF-kappaB activity by reporter gene assay; type: cell-based
Sequence of Toll-like receptor 3 (Homo sapiens) (O15455 whole entry): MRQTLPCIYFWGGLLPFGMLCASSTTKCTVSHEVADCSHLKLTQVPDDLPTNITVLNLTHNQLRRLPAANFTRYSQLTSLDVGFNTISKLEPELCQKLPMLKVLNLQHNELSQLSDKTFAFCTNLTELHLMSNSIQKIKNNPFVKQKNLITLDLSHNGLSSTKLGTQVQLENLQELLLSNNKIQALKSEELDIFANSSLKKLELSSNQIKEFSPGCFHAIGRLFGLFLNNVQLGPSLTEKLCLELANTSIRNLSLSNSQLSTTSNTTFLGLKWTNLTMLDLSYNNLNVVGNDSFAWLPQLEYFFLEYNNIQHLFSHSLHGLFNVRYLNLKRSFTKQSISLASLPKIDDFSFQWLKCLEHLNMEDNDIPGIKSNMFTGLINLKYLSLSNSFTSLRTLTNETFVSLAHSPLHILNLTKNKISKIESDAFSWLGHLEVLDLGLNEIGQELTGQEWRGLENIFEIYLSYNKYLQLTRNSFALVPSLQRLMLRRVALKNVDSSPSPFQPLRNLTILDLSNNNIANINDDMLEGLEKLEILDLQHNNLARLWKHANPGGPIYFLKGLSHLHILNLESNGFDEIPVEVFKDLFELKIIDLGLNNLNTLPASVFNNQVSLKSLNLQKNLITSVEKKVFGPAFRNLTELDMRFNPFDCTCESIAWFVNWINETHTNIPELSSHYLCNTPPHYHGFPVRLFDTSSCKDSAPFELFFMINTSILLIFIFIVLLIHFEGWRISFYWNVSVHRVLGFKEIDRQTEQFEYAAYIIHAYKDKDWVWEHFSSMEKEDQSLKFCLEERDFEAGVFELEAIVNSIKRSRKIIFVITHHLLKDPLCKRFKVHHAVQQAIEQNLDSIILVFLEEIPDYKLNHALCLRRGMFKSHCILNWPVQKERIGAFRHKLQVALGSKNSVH

Measured: inhibition

CCCCc1cc2c(nc(N)c3ccccc32)o1
inactive: all assays above

CCCCc1cc2c(N)nc3ccccc3c2o1
inactive: all assays above

CCCc1cc2c(N)nc3ccccc3c2o1
inactive: all assays above

Nc1nc2ccccc2c2oc(-c3ccccc3)cc12
inactive: all assays above
